Consider seven molecules from patent US20220324835A1 (Nurix Therapeutics, Inc., priority 2018, published 2022).

What all share (format): cell-based
For one assay, the system named is primary human NK cells. As to the kind of experiment: NK cell activation assessed by cytokine secretion (coculture with K562 NucRed target cells). To be noted: K562, NK cells cocultured with K562 NucRed, 1:1 E/T; for fold induction at 0.625 µM: 0.625 μM compound; for fold induction at 2.5 µM: 2.5 μM compound; for fold induction at 10 µM: 10 μM compound. Summed up:
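Primary NK cells from donor PBMC, IL-2 (60 ng/mL) overnight, then Cbl-b inhibitor (e.g. 10, 1 or 0.1 μM; DMSO <0.1%) for 1 h before 6 h coculture with K562 NucRed at effector:target ratios such as 5:1, 1:1 or 1:5. Supernatant IFNγ, TNFα, MIP1β measured by ELISA or Luminex; fold change over inhibitor-free baseline, >2.0-fold positive.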

The next assay concerns primary human B cells. As to the kind of experiment: B cell activation assay (CD69 on anti-IgM stimulated B cells). To be noted: AUC of dose response curve (10 μM to 1 nM) of CD69 MFI normalized to DMSO control. Summed up: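 Negatively selected PBMC-derived B cells (>95% CD20+) treated with Cbl-b inhibitors from 10 μM to 1 nM (DMSO <0.5%) and stimulated with anti-IgM for 20 h at 37° C. CD69 MFI on CD20+ IgD+ cells by flow cytometry; dose-response AUC normalized to DMSO plus 2.5 μg/mL anti-IgM-F(ab′)2, binned A-D.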

Assay [1] deals with human T-cells with allogenic immature dendritic cells. Kind of assay: Allogenic mixed lymphocyte reaction (MLR), T-cell proliferation. To be noted: 120 h, 5 days, baseline T-cells without Cbl-b inhibitor, read-out: Proliferation, fold change over baseline. A digest of the protocol: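 CFSE-labelled primary human T-cells, preincubated with Cbl-b inhibitor, stimulated by allogenic immature dendritic cells derived from monocytes with GM-CSF (30 ng/mL) and IL-4 (20 ng/mL) over 7 days. Proliferation by flow cytometry, expressed as fold over inhibitor-free baseline; >2-fold counted positive.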

[2] abbreviates: read-out: IFNγ secretion, fold change over baseline.
[3] abbreviates: read-out: TNFα secretion, fold change over baseline.

Each structure is given as a SMILES string. Like-named read-outs stand apart in the source and are kept apart here.

As for `Cn1cnnc1C(F)(F)[C@](C)(F)c1cccc(N2Cc3c(cc(N4CCNCC4)cc3C(F)(F)F)C2=O)c1` [Compound 442, (R)-6-(Piperazin-1-yl)-2-(3-(1,1,2-trifluoro-1-(4-methyl-4H-1,2,4-triazol-3-yl)propan-2-yl)phenyl)-4-(trifluoromethyl)isoindolin-1-one], in the assay with primary human NK cells (setting [2]), the fold induction at 0.625 µM was 2.01 to 5, the fold induction at 2.5 µM fell in the range of 2.01 to 5 and the fold induction at 10 µM lay in the range of 2.01 to 5. Further, in the assay on primary human NK cells (setting [3]), the fold induction at 0.625 µM fell in the range of 2.01 to 5, the fold induction at 2.5 µM is 2.01 to 5 and the fold induction at 10 µM lay in the range of 1.01 to 2. For the same molecule, the “CD69 MFI AUC” value in the assay on primary human B cells is listed as “B (B indicates 0.5-1.00)”. In addition, in assay [1], the fold induction at 3 µM was less than 2 and the fold induction at 10 µM is less than 2.
Take `Cn1cnnc1C(F)(F)[C@](C)(F)c1cccc(N2Cc3c(cc(CN4CC[C@@H](F)C4)cc3C(F)(F)F)C2=O)c1` [Compound 450]: in the assay with primary human NK cells (setting [2]), the fold induction at 0.625 µM fell in the range of 2.01 to 5, the fold induction at 2.5 µM was more than 5 and the fold induction at 10 µM is more than 5. In the assay on primary human NK cells (setting [3]), the fold induction at 0.625 µM fell in the range of 1.01 to 2, the fold induction at 2.5 µM lay within 2.01 to 5 and the fold induction at 10 µM is 2.01 to 5. Moreover, in the assay with primary human B cells, the “CD69 MFI AUC” value was “C (C indicates 1.01-1.50)”. Moreover, in assay [1], the fold induction at 3 µM was less than 2 and the fold induction at 10 µM was in the range of 2.01 to 3.
Regarding `COC1CN(Cc2cc3c(c(C(F)(F)F)c2)CN(c2cccc([C@@](C)(F)C(F)(F)c4nncn4C)c2)C3=O)C1` [Compound 452, (R)-6-((3-methoxyazetidin-1-yl)methyl)-2-(3-(1,1,2-trifluoro-1-(4-methyl-4H-1,2,4-triazol-3-yl)propan-2-yl)phenyl)-4-(trifluoromethyl)isoindolin-1-one], in the assay on primary human NK cells (setting [2]), the fold induction at 0.625 µM was more than 5, the fold induction at 2.5 µM is more than 5 and the fold induction at 10 µM is more than 5. For the same molecule, in the assay on primary human NK cells (setting [3]), the fold induction at 0.625 µM was 1.01 to 2, the fold induction at 2.5 µM was 2.01 to 5 and the fold induction at 10 µM lay in the range of 2.01 to 5. Moreover, the “CD69 MFI AUC” value in the assay with primary human B cells is reported as “D (D indicates ≥1.51)”. In addition, in assay [1], the fold induction at 3 µM was less than 2 and the fold induction at 10 µM is less than 2.
As for `Cn1cnnc1C(F)(F)[C@](C)(F)c1cccc(N2Cc3c(cc(CN4CC[C@@H](C#N)C4)cc3C(F)(F)F)C2=O)c1` [Compound 455, (R)-1-((3-oxo-2-(3-((R)-1,1,2-trifluoro-1-(4-methyl-4H-1,2,4-triazol-3-yl)propan-2-yl)phenyl)-7-(trifluoromethyl)isoindolin-5-yl)methyl)pyrrolidine-3-carbonitrile], in the assay on primary human NK cells (setting [2]), the fold induction at 0.625 µM is more than 5, the fold induction at 2.5 µM was more than 5 and the fold induction at 10 µM was more than 5. In the assay with primary human NK cells (setting [3]), the fold induction at 0.625 µM fell in the range of 1.01 to 2, the fold induction at 2.5 µM lay within 2.01 to 5 and the fold induction at 10 µM lay in the range of 2.01 to 5. In the assay with primary human B cells, the “CD69 MFI AUC” value is “C (C indicates 1.01-1.50)”. For the same molecule, in assay [1], the fold induction at 3 µM is less than 2 and the fold induction at 10 µM is less than 2.
`C[C@H](Cc1nncn1C)c1cccc(NC(=O)c2cc3cc(N4CCNCC4)ccc3cn2)c1` [Compound 472, N-{3-[(2R)-1-(4-methyl-4H-1,2,4-triazol-3-yl)propan-2-yl]phenyl}-6-(piperazin-1-yl)isoquinoline-3-carboxamide]: in the assay on primary human NK cells (setting [2]), the fold induction at 0.625 µM was less than 1, the fold induction at 2.5 µM fell in the range of 1.01 to 2 and the fold induction at 10 µM lay in the range of 2.01 to 5. In addition, in the assay on primary human NK cells (setting [3]), the fold induction at 0.625 µM was less than 1, the fold induction at 2.5 µM was less than 1 and the fold induction at 10 µM was 1.01 to 2. Also, the “CD69 MFI AUC” value with primary human B cells is listed as “C (C indicates 1.01-1.50)”. Besides, in assay [1], the fold induction at 3 µM was less than 2 and the fold induction at 10 µM is less than 2.
On to `Cn1cnnc1CC1(c2cccc(NC(=O)c3cc(CN4CCC5(CC5)C4)cc(C4CC4)n3)c2)COC1` [Compound 519, 4-((5-azaspiro[2.4]heptan-5-yl)methyl)-6-cyclopropyl-N-(3-(3-((4-methyl-4H-1,2,4-triazol-3-yl)methyl)oxetan-3-yl)phenyl)picolinamide], for which, in the assay on primary human NK cells (setting [2]), the fold induction at 0.625 µM was more than 5, the fold induction at 2.5 µM is more than 5 and the fold induction at 10 µM was more than 5. For the same molecule, in the assay with primary human NK cells (setting [3]), the fold induction at 0.625 µM was more than 5, the fold induction at 2.5 µM fell in the range of 1.01 to 2 and the fold induction at 10 µM is 2.01 to 5. Moreover, the “CD69 MFI AUC” value in the assay on primary human B cells is “D (D indicates ≥1.51)”. In assay [1], the fold induction at 3 µM is more than 3.01 and the fold induction at 10 µM was more than 3.01.
For `Cn1cnnc1CC1(c2cccc(N3Cc4c(cc(CN5CCC6(CC6)C5)cc4C(F)(F)F)C3=O)c2)COC1` [Compound 520, 6-((5-azaspiro[2.4]heptan-5-yl)methyl)-2-(3-(3-((4-methyl-4H-1,2,4-triazol-3-yl)methyl)oxetan-3-yl)phenyl)-4-(trifluoromethyl)isoindolin-1-one], in the assay with primary human NK cells (setting [2]), the fold induction at 0.625 µM was more than 5, the fold induction at 2.5 µM is more than 5 and the fold induction at 10 µM was more than 5. Further, in the assay with primary human NK cells (setting [3]), the fold induction at 0.625 µM fell in the range of 2.01 to 5, the fold induction at 2.5 µM is more than 5 and the fold induction at 10 µM lay in the range of 2.01 to 5. For the same molecule, the “CD69 MFI AUC” value with primary human B cells is recorded as “D (D indicates ≥1.51)”. For the same molecule, in assay [1], the fold induction at 3 µM was more than 3.01 and the fold induction at 10 µM is more than 3.01.
